From PubChem BioAssay (NCI)
Several values for one entry are separate records, joined by “and”; a condition that tells them apart may be missing. Identical values can stand only once.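 Cultured in 96-well plates, cells were exposed to test compound for 48 hours across five concentrations. Here, GI50 denotes the concentration required for 50% inhibition of growth. TGI: total growth inhibition.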

What was measured:
Experiment in all cases: inhibition of tumour cell growth, NCI panel, 48 h; in the data active = GI50 below about 0.43 µM; inactive = the rest
HOP-62 NSCLC = system: HOP-62 NSCLC
UACC-257 melanoma = system: UACC-257 melanoma
MALME-3M melanoma = system: MALME-3M melanoma
DU-145 prostate = system: DU-145 prostate
MDA-MB-231 breast = system: MDA-MB-231 breast
SK-MEL-2 melanoma = system: SK-MEL-2 melanoma
IGROV1 ovarian = system: IGROV1 ovarian
M14 melanoma = system: M14 melanoma
A549 NSCLC = system: A549 NSCLC
HCC-2998 colon = system: HCC-2998 colon
SW-620 colon = system: SW-620 colon
RXF 393 renal = system: RXF 393 renal
MDA-N = system: MDA-N
SK-OV-3 ovarian = system: SK-OV-3 ovarian
UO-31 renal = system: UO-31 renal
EKVX NSCLC = system: EKVX NSCLC
786-0 renal = system: 786-0 renal
K-562 leukemia = system: K-562 leukemia
NCI-H522 lung = system: NCI-H522 lung
OVCAR-3 ovarian = system: OVCAR-3 ovarian
HCT-116 colon = system: HCT-116 colon
HS 578T breast = system: HS 578T breast
CCRF-CEM leukemia = system: CCRF-CEM leukemia
SF-268 CNS = system: SF-268 CNS
MOLT-4 leukemia = system: MOLT-4 leukemia
OVCAR-5 ovarian = system: OVCAR-5 ovarian
MDA-MB-435 = system: MDA-MB-435
NCI-H460 lung = system: NCI-H460 lung
SR leukemia = system: SR leukemia
U251 CNS = system: U251 CNS
RPMI-8226 leukemia = system: RPMI-8226 leukemia
NCI-H23 lung = system: NCI-H23 lung
CAKI-1 renal = system: CAKI-1 renal
SK-MEL-5 melanoma = system: SK-MEL-5 melanoma
T-47D breast = system: T-47D breast
HL-60(TB) leukemia = system: HL-60(TB) leukemia
NCI/ADR-RES ovarian = system: NCI/ADR-RES ovarian
SNB-75 CNS = system: SNB-75 CNS
BT-549 breast = system: BT-549 breast
HOP-92 NSCLC = system: HOP-92 NSCLC
LOX IMVI melanoma = system: LOX IMVI melanoma
UACC-62 melanoma = system: UACC-62 melanoma
SF-295 CNS = system: SF-295 CNS
OVCAR-8 ovarian = system: OVCAR-8 ovarian
HCT-15 colon = system: HCT-15 colon
NCI-H226 lung = system: NCI-H226 lung
SNB-19 CNS = system: SNB-19 CNS
PC-3 prostate = system: PC-3 prostate
OVCAR-4 ovarian = system: OVCAR-4 ovarian
COLO 205 colon = system: COLO 205 colon
A498 renal = system: A498 renal
SK-MEL-28 melanoma = system: SK-MEL-28 melanoma
MCF7 breast = system: MCF7 breast
SN12C renal = system: SN12C renal
HT29 colon = system: HT29 colon
KM12 colon = system: KM12 colon
SF-539 CNS = system: SF-539 CNS
TK-10 renal = system: TK-10 renal
ACHN renal = system: ACHN renal

CC1OC(OC2C(OC(=O)[C@]34CCC(C)(C)C[C@H]3C3=CC[C@@H]5[C@@]6(C)CC[C@H](OC7OC(C(=O)O)C(O)C(O)C7O)C(C)(C)[C@@H]6CC[C@@]5(C)[C@]3(C)CC4)OCC(O)C2O)C(O)C(O)C1OC1OCC(O)C(O)C1O (some centres undefined)
86.5 µM and > 100 µM: TGI (UACC-62 melanoma)
> 100 µM and 30.1 µM: TGI (HT29 colon)
33.2 µM and 35.7 µM: TGI (A498 renal)
99.8 µM and 43.7 µM: TGI (HOP-92 NSCLC)
56 µM and 35.6 µM: TGI (M14 melanoma)
93.1 µM and > 100 µM: TGI (UACC-257 melanoma)
> 100 µM and 74.7 µM: TGI (PC-3 prostate)
> 100 µM and 37.3 µM: TGI (BT-549 breast)
73.5 µM and 45.8 µM: TGI (HL-60(TB) leukemia)
> 100 µM and 77.1 µM: TGI (SR leukemia)
60.4 µM and 35.4 µM: TGI (MDA-MB-231 breast)
79.3 µM and 48.4 µM: TGI (EKVX NSCLC)
> 100 µM and 71.5 µM: TGI (RPMI-8226 leukemia)
inactive: GI50 (HOP-62 NSCLC) > 100 µM and 25.5 µM | GI50 (DU-145 prostate) > 100 µM and 45.9 µM | GI50 (SW-620 colon) 98 µM and 45.1 µM | GI50 (K-562 leukemia) 58.7 µM and 28 µM | GI50 (HS 578T breast) > 100 µM and 45.5 µM | GI50 (MOLT-4 leukemia) > 100 µM and 36.9 µM | GI50 (SR leukemia) 46.2 µM and 22.5 µM | GI50 (RPMI-8226 leukemia) 54.5 µM and 25.6 µM | GI50 (SK-MEL-5 melanoma) > 100 µM and 28.3 µM | GI50 (SNB-75 CNS) 80.6 µM and 24.7 µM | GI50 (BT-549 breast) 40 µM and 18.4 µM | GI50 (SF-295 CNS) 53.5 µM and 24 µM | GI50 (SNB-19 CNS) > 100 µM and 47.5 µM | GI50 (PC-3 prostate) 66.9 µM and 25.2 µM | GI50 (KM12 colon) 37.9 µM and 17.1 µM
37.8 µM and 36.2 µM: TGI (MDA-N)
> 100 µM and 76.9 µM: TGI (K-562 leukemia)
> 100 µM: TGI (MALME-3M melanoma) | TGI (DU-145 prostate) | TGI (IGROV1 ovarian) | TGI (A549 NSCLC) | TGI (SW-620 colon) | TGI (RXF 393 renal) | TGI (SK-OV-3 ovarian) | TGI (786-0 renal) | TGI (NCI-H522 lung) | TGI (OVCAR-3 ovarian) | TGI (HCT-116 colon) | TGI (HS 578T breast) | TGI (CCRF-CEM leukemia) | TGI (SF-268 CNS) | TGI (MOLT-4 leukemia) | TGI (OVCAR-5 ovarian) | TGI (NCI-H460 lung) | TGI (U251 CNS) | TGI (CAKI-1 renal) | TGI (SK-MEL-5 melanoma) | TGI (T-47D breast) | TGI (NCI/ADR-RES ovarian) | TGI (LOX IMVI melanoma) | TGI (OVCAR-8 ovarian) | TGI (HCT-15 colon) | TGI (NCI-H226 lung) | TGI (SNB-19 CNS) | TGI (OVCAR-4 ovarian) | TGI (MCF7 breast)
34.8 µM: TGI (MDA-MB-435)
> 100 µM and 34 µM: TGI (KM12 colon)
> 100 µM and 58.6 µM: TGI (SF-295 CNS)
31.2 µM and 30.6 µM: TGI (COLO 205 colon)
> 100 µM and 76.8 µM: TGI (SNB-75 CNS)
50.5 µM and 40.5 µM: TGI (SN12C renal)
> 100 µM and 63.7 µM: TGI (SK-MEL-2 melanoma)
34.4 µM and 58.9 µM: TGI (SK-MEL-28 melanoma)
39.1 µM and 34.8 µM: TGI (UO-31 renal)
33.6 µM and 34 µM: TGI (HCC-2998 colon)
42.5 µM and 38.3 µM: TGI (NCI-H23 lung)
> 100 µM and 55.6 µM: TGI (HOP-62 NSCLC)

c1ccc(N/N=C2\CC(c3ccccc3)Oc3ccccc32)cc1 (centres undefined)
> 100 µM: TGI (HOP-62 NSCLC) | TGI (UACC-257 melanoma) | TGI (MALME-3M melanoma) | TGI (DU-145 prostate) | TGI (MDA-MB-231 breast) | TGI (SK-MEL-2 melanoma) | TGI (IGROV1 ovarian) | TGI (M14 melanoma) | TGI (A549 NSCLC) | TGI (HCC-2998 colon) | TGI (SW-620 colon) | TGI (MDA-N) | TGI (SK-OV-3 ovarian) | TGI (UO-31 renal) | TGI (K-562 leukemia) | TGI (OVCAR-3 ovarian) | TGI (HCT-116 colon) | TGI (HS 578T breast) | TGI (CCRF-CEM leukemia) | TGI (SF-539 CNS) | TGI (SF-268 CNS) | TGI (MOLT-4 leukemia) | TGI (OVCAR-5 ovarian) | TGI (MDA-MB-435) | TGI (NCI-H460 lung) | TGI (SR leukemia) | TGI (U251 CNS) | TGI (NCI-H23 lung) | TGI (CAKI-1 renal) | TGI (TK-10 renal) | TGI (SK-MEL-5 melanoma) | TGI (T-47D breast) | TGI (HL-60(TB) leukemia) | TGI (NCI/ADR-RES ovarian) | TGI (BT-549 breast) | TGI (HOP-92 NSCLC) | TGI (ACHN renal) | TGI (LOX IMVI melanoma) | TGI (UACC-62 melanoma) | TGI (SF-295 CNS) | TGI (OVCAR-8 ovarian) | TGI (HCT-15 colon) | TGI (NCI-H226 lung) | TGI (SNB-19 CNS) | TGI (PC-3 prostate) | TGI (OVCAR-4 ovarian) | TGI (COLO 205 colon) | TGI (A498 renal) | TGI (SK-MEL-28 melanoma) | TGI (MCF7 breast) | TGI (SN12C renal) | TGI (HT29 colon) | TGI (KM12 colon)
75.3 µM: TGI (RXF 393 renal)
66.8 µM: TGI (786-0 renal)
83.9 µM: TGI (EKVX NSCLC)
53.6 µM: TGI (NCI-H522 lung)
75.2 µM: TGI (SNB-75 CNS)

CC(C)=CCNc1ncnc2c1ncn2CCC(=O)OC(C)(C)C
40.4 µM: TGI (OVCAR-4 ovarian)
70 µM: TGI (SK-MEL-5 melanoma)
> 100 µM: TGI (HOP-62 NSCLC) | TGI (MALME-3M melanoma) | TGI (DU-145 prostate) | TGI (MDA-MB-231 breast) | TGI (IGROV1 ovarian) | TGI (M14 melanoma) | TGI (A549 NSCLC) | TGI (HCC-2998 colon) | TGI (SW-620 colon) | TGI (RXF 393 renal) | TGI (MDA-N) | TGI (SK-OV-3 ovarian) | TGI (UO-31 renal) | TGI (786-0 renal) | TGI (K-562 leukemia) | TGI (NCI-H522 lung) | TGI (OVCAR-3 ovarian) | TGI (HCT-116 colon) | TGI (HS 578T breast) | TGI (CCRF-CEM leukemia) | TGI (SF-539 CNS) | TGI (SF-268 CNS) | TGI (MOLT-4 leukemia) | TGI (OVCAR-5 ovarian) | TGI (MDA-MB-435) | TGI (NCI-H460 lung) | TGI (SR leukemia) | TGI (U251 CNS) | TGI (RPMI-8226 leukemia) | TGI (NCI-H23 lung) | TGI (TK-10 renal) | TGI (T-47D breast) | TGI (HL-60(TB) leukemia) | TGI (NCI/ADR-RES ovarian) | TGI (SNB-75 CNS) | TGI (BT-549 breast) | TGI (HOP-92 NSCLC) | TGI (ACHN renal) | TGI (LOX IMVI melanoma) | TGI (UACC-62 melanoma) | TGI (SF-295 CNS) | TGI (OVCAR-8 ovarian) | TGI (HCT-15 colon) | TGI (NCI-H226 lung) | TGI (SNB-19 CNS) | TGI (PC-3 prostate) | TGI (COLO 205 colon) | TGI (A498 renal) | TGI (SK-MEL-28 melanoma) | TGI (MCF7 breast) | TGI (SN12C renal) | TGI (HT29 colon) | TGI (KM12 colon)
